Source: patent US9265253B2, “Use of macrocyclic picolinamides as fungicides” (DOW AGROSCIENCES LLC, priority 2013, dated 2016)

Tested on: Mycosphaerella graminicola; Anamorph: Septoria tritici
Experiment: Leaf Blotch of Wheat (SEPTTR) disease control
Assay type: in vivo
Details: Zymoseptoria tritici, 24 h, 1 Day Protectant, rate 100 ppm; read-out: SEPTTR 1 DP disease control
Method in brief: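 Wheat seedlings (Yuma, first leaf emerged) sprayed to run-off with compound in acetone/water with 110 ppm Triton X-100, or track-sprayed as EC with 0.1% Trycol 5941. Septoria tritici spores inoculated before or after treatment. Dew chambers, then 20 °C greenhouse. Percent disease control derived from severity (0–100%) relative to untreated plants.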

SMILES | pest or weed control at 100 ppm [%]
COc1ccnc(C(=O)N[C@H]2CCC[C@H](CC3CCCC3)[C@@H](OCC(C)C)[C@H](C)OC2=O)c1OC(C)=O [Compound F75] | 80 to 100
CC[C@H]1CCC[C@H](NC(=O)c2nccc(OC)c2O)C(=O)O[C@@H](C)[C@@H]1Oc1ccccc1 [Compound F51] | 80 to 100
COc1ccnc(C(=O)N[C@H]2CCC[C@H](CC3CCCC3)[C@@H](Oc3ccccc3)[C@H](C)OC2=O)c1OCOC(C)=O [Compound F115] | 80 to 100

Same assay, conditions: Zymoseptoria tritici, 24 h, 1 Day Protectant, rate 121.5 g/H; read-out: SEPTTR 1 DP disease control

SMILES | pest or weed control at 121.5 g/ha [%]
COc1ccnc(C(=O)N[C@H]2CCC[C@H](CC3CCCC3)[C@@H](OCC(C)C)[C@H](C)OC2=O)c1OC(C)=O [Compound F75] | 80 to 100
COc1ccnc(C(=O)N[C@H]2CCC[C@H](CC3CCCC3)[C@@H](Oc3ccccc3)[C@H](C)OC2=O)c1OCOC(C)=O [Compound F115] | 80 to 100

Same assay, conditions: Zymoseptoria tritici, 24 h, Wheat Leaf Blotch; 1 Day Protectant; rate 100 ppm (high volume application); read-out: Disease control SEPTTR 1 DP

SMILES | pest or weed control at 100 ppm [%]
COCCC(=O)Oc1c(OC)ccnc1C(=O)N[C@H]1CCC[C@H](CC2CCCC2)[C@@H](OCC2CC2)[C@H](C)OC1=O [Compound F194] | 80 to 100
COc1ccnc(C(=O)N[C@H]2CCC[C@H](CCOCC3CC3)[C@@H](OCC3CC3)[C@H](C)OC2=O)c1OC(=O)C1CC1 [Compound F196] | 80 to 100

Same assay, conditions: Zymoseptoria tritici, 24 h, Wheat Leaf Blotch; 1 Day Protectant; rate 121.5 g/H (low volume application); read-out: Disease control SEPTTR 1 DP

SMILES | pest or weed control at 121.5 g/ha [%]
COCCC(=O)Oc1c(OC)ccnc1C(=O)N[C@H]1CCC[C@H](CC2CCCC2)[C@@H](OCC2CC2)[C@H](C)OC1=O [Compound F194] | 80 to 100
COc1ccnc(C(=O)N[C@H]2CCC[C@H](CCOCC3CC3)[C@@H](OCC3CC3)[C@H](C)OC2=O)c1OC(=O)C1CC1 [Compound F196] | 0 to 80

Same assay, conditions: Zymoseptoria tritici, 72 h, 3 Day Curative, rate 100 ppm; read-out: SEPTTR 3 DC disease control

SMILES | pest or weed control at 100 ppm [%]
COc1ccnc(C(=O)N[C@H]2CCC[C@H](CC3CCCC3)[C@@H](OCC(C)C)[C@H](C)OC2=O)c1OC(C)=O [Compound F75] | 80 to 100
CC[C@H]1CCC[C@H](NC(=O)c2nccc(OC)c2O)C(=O)O[C@@H](C)[C@@H]1Oc1ccccc1 [Compound F51] | 0 to 80
COc1ccnc(C(=O)N[C@H]2CCC[C@H](CC3CCCC3)[C@@H](Oc3ccccc3)[C@H](C)OC2=O)c1OCOC(C)=O [Compound F115] | 80 to 100

Same assay, conditions: Zymoseptoria tritici, 72 h, 3 Day Curative, rate 121.5 g/H; read-out: SEPTTR 3 DC disease control

SMILES | pest or weed control at 121.5 g/ha [%]
COc1ccnc(C(=O)N[C@H]2CCC[C@H](CC3CCCC3)[C@@H](OCC(C)C)[C@H](C)OC2=O)c1OC(C)=O [Compound F75] | 80 to 100
COc1ccnc(C(=O)N[C@H]2CCC[C@H](CC3CCCC3)[C@@H](Oc3ccccc3)[C@H](C)OC2=O)c1OCOC(C)=O [Compound F115] | 80 to 100

Same assay, conditions: Zymoseptoria tritici, 72 h, Wheat Leaf Blotch; 3 Day Curative; rate 100 ppm (high volume application); read-out: Disease control SEPTTR 3 DC

SMILES | pest or weed control at 100 ppm [%]
COCCC(=O)Oc1c(OC)ccnc1C(=O)N[C@H]1CCC[C@H](CC2CCCC2)[C@@H](OCC2CC2)[C@H](C)OC1=O [Compound F194] | 80 to 100
COc1ccnc(C(=O)N[C@H]2CCC[C@H](CCOCC3CC3)[C@@H](OCC3CC3)[C@H](C)OC2=O)c1OC(=O)C1CC1 [Compound F196] | 0 to 80

Same assay, conditions: Zymoseptoria tritici, 72 h, Wheat Leaf Blotch; 3 Day Curative; rate 121.5 g/H (low volume application); read-out: Disease control SEPTTR 3 DC

SMILES | pest or weed control at 121.5 g/ha [%]
COCCC(=O)Oc1c(OC)ccnc1C(=O)N[C@H]1CCC[C@H](CC2CCCC2)[C@@H](OCC2CC2)[C@H](C)OC1=O [Compound F194] | 80 to 100
COc1ccnc(C(=O)N[C@H]2CCC[C@H](CCOCC3CC3)[C@@H](OCC3CC3)[C@H](C)OC2=O)c1OC(=O)C1CC1 [Compound F196] | 0 to 80

Tested on: Puccinia triticina; Synonym: Puccinia recondite f. Sp. Tritici
Experiment: Wheat Brown Rust (PUCCRT) disease control
Assay type: in vivo
Details: Puccinia triticina, topical, 24 h, 1 Day Protectant, rate 100 ppm; read-out: PUCCRT 1 DP disease control
Method in brief: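 Brown rust on first-leaf Yuma wheat: spore inoculation before or after spray application (acetone/Triton X-100 solution, or EC with Trycol in track spray), overnight 100% RH at 22 °C, disease developed at 24 °C. Severity scored 0–100% and converted to percent control against untreated.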

SMILES | pest or weed control at 100 ppm [%]
COc1ccnc(C(=O)N[C@H]2CCC[C@H](CC3CCCC3)[C@@H](OCC(C)C)[C@H](C)OC2=O)c1OC(C)=O [Compound F75] | 80 to 100
CC[C@H]1CCC[C@H](NC(=O)c2nccc(OC)c2O)C(=O)O[C@@H](C)[C@@H]1Oc1ccccc1 [Compound F51] | 80 to 100
COc1ccnc(C(=O)N[C@H]2CCC[C@H](CC3CCCC3)[C@@H](Oc3ccccc3)[C@H](C)OC2=O)c1OCOC(C)=O [Compound F115] | 80 to 100

Same assay, conditions: Puccinia triticina, topical, 24 h, 1 Day Protectant, rate 121.5 g/H; read-out: PUCCRT 1 DP disease control

SMILES | pest or weed control at 121.5 g/ha [%]
COc1ccnc(C(=O)N[C@H]2CCC[C@H](CC3CCCC3)[C@@H](OCC(C)C)[C@H](C)OC2=O)c1OC(C)=O [Compound F75] | 80 to 100
COc1ccnc(C(=O)N[C@H]2CCC[C@H](CC3CCCC3)[C@@H](Oc3ccccc3)[C@H](C)OC2=O)c1OCOC(C)=O [Compound F115] | 80 to 100

Same assay, conditions: Puccinia triticina, topical, 24 h, Wheat Brown Rust; 1 Day Protectant; rate 100 ppm (high volume application); read-out: Disease control PUCCRT 1 DP

SMILES | pest or weed control at 100 ppm [%]
COCCC(=O)Oc1c(OC)ccnc1C(=O)N[C@H]1CCC[C@H](CC2CCCC2)[C@@H](OCC2CC2)[C@H](C)OC1=O [Compound F194] | 80 to 100
COc1ccnc(C(=O)N[C@H]2CCC[C@H](CCOCC3CC3)[C@@H](OCC3CC3)[C@H](C)OC2=O)c1OC(=O)C1CC1 [Compound F196] | 80 to 100

Same assay, conditions: Puccinia triticina, topical, 24 h, Wheat Brown Rust; 1 Day Protectant; rate 121.5 g/H (low volume application); read-out: Disease control PUCCRT 1 DP

SMILES | pest or weed control at 121.5 g/ha [%]
COCCC(=O)Oc1c(OC)ccnc1C(=O)N[C@H]1CCC[C@H](CC2CCCC2)[C@@H](OCC2CC2)[C@H](C)OC1=O [Compound F194] | 80 to 100
COc1ccnc(C(=O)N[C@H]2CCC[C@H](CCOCC3CC3)[C@@H](OCC3CC3)[C@H](C)OC2=O)c1OC(=O)C1CC1 [Compound F196] | 80 to 100

Same assay, conditions: Puccinia triticina, topical, 72 h, 3 Day Curative, rate 100 ppm; read-out: PUCCRT 3 DC disease control

SMILES | pest or weed control at 100 ppm [%]
COc1ccnc(C(=O)N[C@H]2CCC[C@H](CC3CCCC3)[C@@H](OCC(C)C)[C@H](C)OC2=O)c1OC(C)=O [Compound F75] | 80 to 100
CC[C@H]1CCC[C@H](NC(=O)c2nccc(OC)c2O)C(=O)O[C@@H](C)[C@@H]1Oc1ccccc1 [Compound F51] | 0 to 80
COc1ccnc(C(=O)N[C@H]2CCC[C@H](CC3CCCC3)[C@@H](Oc3ccccc3)[C@H](C)OC2=O)c1OCOC(C)=O [Compound F115] | 80 to 100

Same assay, conditions: Puccinia triticina, topical, 72 h, 3 Day Curative, rate 121.5 g/H; read-out: PUCCRT 3 DC disease control

SMILES | pest or weed control at 121.5 g/ha [%]
COc1ccnc(C(=O)N[C@H]2CCC[C@H](CC3CCCC3)[C@@H](OCC(C)C)[C@H](C)OC2=O)c1OC(C)=O [Compound F75] | 0 to 80
COc1ccnc(C(=O)N[C@H]2CCC[C@H](CC3CCCC3)[C@@H](Oc3ccccc3)[C@H](C)OC2=O)c1OCOC(C)=O [Compound F115] | 0 to 80

Same assay, conditions: Puccinia triticina, topical, 72 h, Wheat Brown Rust; 3 Day Curative; rate 100 ppm (high volume application); read-out: Disease control PUCCRT 3 DC

SMILES | pest or weed control at 100 ppm [%]
COCCC(=O)Oc1c(OC)ccnc1C(=O)N[C@H]1CCC[C@H](CC2CCCC2)[C@@H](OCC2CC2)[C@H](C)OC1=O [Compound F194] | 80 to 100
COc1ccnc(C(=O)N[C@H]2CCC[C@H](CCOCC3CC3)[C@@H](OCC3CC3)[C@H](C)OC2=O)c1OC(=O)C1CC1 [Compound F196] | 80 to 100

Same assay, conditions: Puccinia triticina, topical, 72 h, Wheat Brown Rust; 3 Day Curative; rate 121.5 g/H (low volume application); read-out: Disease control PUCCRT 3 DC

SMILES | pest or weed control at 121.5 g/ha [%]
COCCC(=O)Oc1c(OC)ccnc1C(=O)N[C@H]1CCC[C@H](CC2CCCC2)[C@@H](OCC2CC2)[C@H](C)OC1=O [Compound F194] | 0 to 80
COc1ccnc(C(=O)N[C@H]2CCC[C@H](CCOCC3CC3)[C@@H](OCC3CC3)[C@H](C)OC2=O)c1OC(=O)C1CC1 [Compound F196] | 80 to 100
